From US20240360186A1, “Treatment Of Integrin-Related Disorders With Stapled Peptides” (Institute For Cancer Research d/b/a The Research Institute …, priority 2021, published 2024)
Entries after “also recorded” stand apart in the source; their conditions may differ. Bridge positions count the residues as written; N and C are the ends. Square brackets hold non-standard residues; d marks the D form. Peptide text beside a SMILES is read from it. S5 = C=CCCC[C@](C)(N)C(=O)O

Assays:
talin rod R7R8 domains = molecular target: T1, talin rod R7R8 domains (Mus musculus, UniProt P26039); assay: Fluorescent polarization (FP) binding assay, talin rod R7R8; settings: S-TBS versus TBS, from FP Kd values
T1 construct: talin rod R7R8 and talin head (residues 1-430) were measured using fluorophore-labeled peptides and recombinantly expressed, purified talin proteins; made in house
Experimental: (§1) To assess the binding affinities of S-TBS with talin, the Kd of TBS and S-TBS peptides with talin rod R7R8 and talin head (residues 1-430) were measured using fluorophore-labeled peptides and recombinantly expressed, purified talin proteins by FP assays. […] This gain of affinity may be attributed to the C8 staple as it stabilizes the helical structure of TBS, and the enhanced hydrophobic interaction between S-TBS and talin rod. The enhanced binding of S-TBS to talin further validates the design strategy of using stapled peptides as a potent competitive inhibitor.
(§2) Fluorescent Polarization: Mixtures were prepared of purified talin proteins at a series concentration (R7R8: 0.2 μM to 20 μM; THD/b3-THD: 5 μM to 100 μM), or buffer only, with 20 nM FITC-labeled S-TBS (New England Peptide) in a buffer containing 20 mM HEPES, pH 7.5, 100 mM NaCl, and 2 mM DTT. After five minutes of incubation, 20 μl of the reaction mix was added to individual wells of a 384-well assay plate (Corning) and then measured fluorescence polarization at room temperature using a plate reader. A […] as emission polarization filters. FP signals were normalized against buffer-only background and then fit to a single-site (saturating) binding model using SigmaPlot (Systat Software).

[1] = molecular target: T2, talin head (residues 1-430) (Mus musculus, UniProt P26039); assay: Fluorescent polarization (FP) binding assay, talin head
T2 construct: talin rod R7R8 and talin head (residues 1-430) were measured; made in house
Experimental: as §1, §2

CHO-A5 cells = assay: Cell permeability assay (flow cytometry uptake of fluorophore-labelled peptide); format: in vitro ADME
Experimental: Assessing membrane permeability: CHO-A5 cells were treated with FAM-labelled WT-TBS (1, 10, and 50 μM), or with FITC-labelled stapled-TBS (1, 10, and 50 μM), and incubated for 30 minutes at 37° C. The cells were washed twice with phosphate-buffered saline (PBS), harvested in trypsin-EDTA, and centrifuged at 2,000 rpm for 5 minutes. The cells were resuspended in PBS and quantified with an LSR flow cytometer using 30,000 cells per measurement.
A common challenge for peptidomimetic drugs that target intracellular proteins is the poor cell membrane permeability. To assess the effect of the C8 staple on cell permeability, FITC-labeled S-TBS were incubated with CHO cells at various concentration and examined S-TBS uptake by flow cytometry. […] The assay was then performed using lower doses of peptides and quantified the signals for statistical analyses. […] In contrast, TBS requires a concentration of at least 5 μM for cell uptake (FIG. 3, Panel B).
Cell permeability assay: CHO-A5 cells were plated in 6-well dishes, and then treated with fluorophore labeled TBS or S-TBS peptides at indicated concentrations for 30 minutes at 37° C. The cells were then washed twice with phosphate-buffered saline (PBS), detached by adding a mixture of trypsin and […] (“trypsin-EDTA”) and harvested by spinning at 2,000 rpm for 5 minutes. The cells were resuspended in PBS and quantified with an LSR flow cytometer (525/50 filter, 488 nm laser) using 30,000 cells per measurement.

integrin αIIbβ3 [2] = assay: Integrin activation assay, wild-type talin head domain; format: cell-based; settings: CHO-A5 cells expressing GFP-tagged wild-type talin head domain; TBS 100 μM, S-TBS 10 and 100 μM, 30 minutes; PAC1 flow cytometry
Experimental: (§3) Assessing integrin activation: CHO-A5 cells were transfected with GFP-tagged talin-head domain (residues 1-430, WT or W359A) and incubated for 24 hours at 37° C. The cells were subsequently treated with WT-TBS at 100 μM or Staple-TBS (at 10 and 100 μM) for 30 minutes at 37° C. and washed twice with PBS, harvested in trypsin-EDTA, and centrifuged at 2,000 rpm for 5 minutes. The cells were incubated in Tyrode's buffer (136.9 mM NaCl, 10 mM HEPES, 5.5 mM glucose, 11.9 mM NaHCO3, 2.7 mM KCl, 0.5 mM CaCl2), 1.5 mM MgCl2, and 0.4 mM NaH2PO4, pH 7.4) containing PAC1 antibody for 1 hour at 30° C. and then stained with Alexa 647 (goat anti-mouse IgM) for 30 minutes at RT. The cells were quantified with an LSR flow cytometer using 30,000 cells per measurement.
(§4) The effect of S-TBS on talin-induced activation of integrin αIIbβ3 was examined. CHO-A5 cells that stably express integrin αIIbβ3 were transfected with a green fluorescent protein-tagged talin head domain, treated with S-TBS or TBS, and then subjected flow cytometry analysis for integrin αIIbβ3 activity. […]
(§5) Integrin activation assays: CHO-A5 cells were transfected with talin-head domain, wild-type or W359A, and incubated for 24 hours at 37° C. […] The cells were quantified with a Beckton, Dickenson & Co. Biosciences LSR flow cytometer (660/20 filter, 640 nm laser) using 30,000 cells per measurement.

integrin αIIbβ3 [3] = assay: Integrin activation assay, inactive talin head mutant THD-W359A; format: cell-based; settings: CHO-A5 cells transfected with THD-W359A; TBS 100 μM, S-TBS 10 and 100 μM; PAC1 flow cytometry
Experimental: as §3, §4, §5

HEK-293 cells = assay: Cell toxicity assay, HEK-293; format: cell-based; settings: 40 μM, treated one hour then washed away, viability at 24 and 48 hours
Experimental: (§6) The cell toxicity of the peptides was then examined. HEK, MCF-7, and HeLa were used. Cells were treated with S-TBS 40 μm for one hour. The S-TBS was then washed away and the viability measured at 24 and 48 hours. No impact on HEK, MCF-7, and HeLa cell growth was observed.

MCF-7 cells = assay: Cell toxicity assay, MCF-7; format: cell-based; settings: 40 μM, treated one hour then washed away, viability at 24 and 48 hours
Experimental: as §6

HeLa cells = assay: Cell toxicity assay, HeLa; format: cell-based; settings: 40 μM, treated one hour then washed away, viability at 24 and 48 hours
Experimental: as §6

CHO cell = assay: Cell toxicity, CHO cell growth; format: cell-based
Jurkat T-cell = assay: Cell toxicity, Jurkat T-cell growth; format: cell-based

T1 sequence (P26039 1359-1659 limits assumed): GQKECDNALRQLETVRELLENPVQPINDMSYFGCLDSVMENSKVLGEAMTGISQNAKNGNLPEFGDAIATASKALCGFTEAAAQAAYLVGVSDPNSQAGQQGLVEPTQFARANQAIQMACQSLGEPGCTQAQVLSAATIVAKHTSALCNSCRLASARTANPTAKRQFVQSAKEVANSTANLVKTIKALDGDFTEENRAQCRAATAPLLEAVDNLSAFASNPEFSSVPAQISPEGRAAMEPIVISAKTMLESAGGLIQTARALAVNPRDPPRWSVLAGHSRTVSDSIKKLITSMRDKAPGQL

fold stronger binding to R7R8 than TBS (talin rod R7R8 domains): 6 fold
Kd ([1]; FP assay, fluorophore-labeled peptide, purified recombinant talin head (residues 1-430), read-out: Kd, talin head domain): 30.3 ± 4.8 µM
fold stronger binding to talin head than TBS ([1]; S-TBS versus TBS, from FP Kd values): 3.5 fold
fluorescence signal of treated cells (peptide uptake) compared with fluorophore-labelled TBS (CHO-A5 cells; CHO cells, 1, 10 and 50 μM, 30 minutes at 37° C., FITC-labeled S-TBS): significantly stronger signal
concentration giving significant cell uptake (CHO-A5 cells; CHO-A5 cells, lower doses, flow cytometry permeability index, fluorophore-labelled peptides): 0.5 µM
Compound: CC[C@H](C)[C@H](NC(=O)[C@H](CC(=O)O)NC(=O)[C@H](CCC(=O)O)NC(=O)[C@@H](N)CC(N)=O)C(=O)N[C@@H](CC(=O)O)C(=O)N[C@@H](CCC(N)=O)C(=O)N[C@@H](CCSC)C(=O)N[C@@H](Cc1ccccc1)C(=O)N[C@@H](CO)C(=O)N[C@H](C(=O)N[C@@H](CC(C)C)C(=O)N[C@@H](CC(C)C)C(=O)NCC(=O)N[C@@H](CCC(=O)O)C(=O)N[C@@]1(C)CCCC=CCCC[C@@](C)(C(=O)N[C@@H](CCC(N)=O)C(=O)N[C@@H](CO)C(=O)O)NC(=O)[C@H](CC(C)C)NC(=O)[C@H](CC(C)C)NC(=O)[C@H](CC(=O)O)NC1=O)[C@@H](C)O [S-TBS, (Stp(15,19))H2N-NEDIDQMFSTLLGE(S5)DLL(S5)QS-OH] (H-NEDIDQMFSTLLGE[S5]DLL[S5]QS-OH; staple 15-19)
integrin αIIbβ3 activity (talin-induced activation) (integrin αIIbβ3 [2]): significantly suppresses integrin αIIbβ3 activity in a dose-dependent manner
integrin αIIbβ3 activity with inactive talin head THD-W359A (integrin αIIbβ3 [3]): No inhibitory effect
cell toxicity (viability / cell growth), HEK (HEK-293 cells): No impact; also recorded: minimal cell toxicity
cell toxicity (viability / cell growth), MCF-7 (MCF-7 cells): No impact; also recorded: minimal cell toxicity
cell toxicity (viability / cell growth), HeLa (HeLa cells): No impact; also recorded: minimal cell toxicity
impact on CHO cell growth (CHO cell): no impact
impact on Jurkat T-cell growth (Jurkat T-cell): no impact
